Patent US9815851B2, “Pyrrolo carboxamides as modulators of orphan nuclear receptor RAR-related orphan receptor-gamma (RORγ, NR1F3) activity and for the treatment of chronic inflammatory and autoimmune diseases” (PHENEX PHARMACEUTICALS AG, priority 2011, dated 2017)
Read-outs that look alike come from different tables or passages of the source.

Tests used:
[1] = target: T1, RORγ ligand binding domain (LBD) (Homo sapiens, UniProt P51449); test: TR-FRET Activity Assay (ligand sensing, RORγ-LBD / coactivator peptide interaction, LANCE); format: biochemical
T1 construct: made in house; host or cells: E. coli BL-21 (BL3), vector pDEST15
T1 sequence (P51449 269-508 limits assumed): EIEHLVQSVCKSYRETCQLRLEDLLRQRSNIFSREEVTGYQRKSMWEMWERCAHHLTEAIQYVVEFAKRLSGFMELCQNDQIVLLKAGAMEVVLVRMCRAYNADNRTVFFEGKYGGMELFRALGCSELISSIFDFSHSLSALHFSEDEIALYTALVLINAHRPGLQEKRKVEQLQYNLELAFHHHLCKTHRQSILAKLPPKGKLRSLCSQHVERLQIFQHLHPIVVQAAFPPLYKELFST

RORγ = target: T2, RORγ (UniProt P51449); test: RORγ Gal4 Reporter Gene Assay in 293T cells (firefly and renilla luciferase); format: cell-based, human
T2 sequence (P51449 1-518): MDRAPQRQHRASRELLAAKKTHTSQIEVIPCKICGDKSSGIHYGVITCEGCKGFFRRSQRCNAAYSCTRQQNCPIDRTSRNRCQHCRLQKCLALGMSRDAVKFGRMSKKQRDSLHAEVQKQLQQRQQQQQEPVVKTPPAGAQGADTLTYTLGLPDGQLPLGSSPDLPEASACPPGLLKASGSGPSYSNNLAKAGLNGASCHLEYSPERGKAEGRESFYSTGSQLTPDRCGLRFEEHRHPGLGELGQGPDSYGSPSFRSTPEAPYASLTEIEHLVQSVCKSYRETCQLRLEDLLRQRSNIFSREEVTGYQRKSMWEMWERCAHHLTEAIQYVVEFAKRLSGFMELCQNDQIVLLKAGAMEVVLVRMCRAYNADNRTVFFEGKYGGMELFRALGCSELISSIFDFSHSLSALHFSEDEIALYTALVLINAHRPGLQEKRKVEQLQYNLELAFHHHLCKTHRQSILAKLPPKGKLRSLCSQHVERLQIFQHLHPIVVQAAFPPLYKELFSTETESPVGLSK

[2] = first value of the cell FRET/FF/REN, TR-FRET activity assay, read-out: pIC50 (FRET) (converted)
[3] = second value of the cell, Gal4 reporter gene assay in 293T cells, firefly luciferase
[4] = third value of the cell, Gal4 reporter gene assay in 293T cells, renilla normalised luciferase

SMILES | IC50 [1, 2] | pIC50 (FF) (RORγ; [3]) | pIC50 (REN) (RORγ; [4]) | IC50 [1] | pIC50 (FF) (RORγ) | pIC50 (REN) (RORγ)
Cc1c(C(=O)NC2CCOCC2)cc(-c2ccc(S(=O)(=O)N[C@@H](C)C(F)(F)F)c(C(F)(F)F)c2)n1CC1CCCCC1 [17/141] | 316 nM | 8.3 | 8.5 |  |  | 
Cc1c(C(=O)NC2SC(=O)NC2=O)cc(-c2cc(C(C)(C)C)c3c(c2)C2(CCO3)CC2)n1CC1CCCCC1 (stereo not drawn) [17/24] | 3160 nM | 5.8 | 5.7 |  |  | 
CCC(C)(C)NS(=O)(=O)c1ccc(-c2cc(C(=O)NC3CCOCC3)c(C)n2CC2CCC2)cc1C(F)(F)F [17/217] | 126 nM | 7.6 | 7.7 |  |  | 
Cc1c(C(=O)N2CCOCC2)cc(-c2cc(C(C)(C)C)cc(C(C)(C)C)c2)n1CC1CCCCC1 [1/52] | 158 nM | 6.4 | 6.5 |  |  | 
Cc1c(C(=O)NCC(C)(C)NC(=O)CCC(=O)O)cc(-c2cc(C(C)(C)C)c3c(c2)C2(CCO3)CC2)n1CC1CCCCC1 [17/29] | 1260 nM | 6.8 | 6.7 |  |  | 
Cc1c(C(=O)NCCCC(=O)O)cc(-c2cc(C(C)(C)C)cc(C(C)(C)C)c2)n1CC1CCCCC1 [1/69] | 1580 nM | 6.8 | 6.9 |  |  | 
Cc1c(C(=O)NCCCCCO)cc(-c2ccc(S(=O)(=O)NC(C)(C)C)c(C(C)(C)C)c2)n1CC1CCCCC1 [1/128] | 501 nM | 7.2 | 7.2 |  |  | 
Cc1c(C(=O)NCCN(C)C)cc(-c2cc(C(C)(C)C)cc(C(C)(C)C)c2)n1CC1CCCCC1 [1/56] |  |  |  | 3160 nM | 5.5/<4.7/<4.7 | 5.5/<4.7/<4.7
Cc1c(C(=O)NCC(C)(C)NC(=O)CC2SC(=O)NC2=O)cc(-c2cc(C(C)(C)C)c3c(c2)C2(CCO3)CC2)n1CC1CCCCC1 (stereo not drawn) [17/35] | 1580 nM | 6.4 | 6.3 |  |  | 
Cc1c(C(=O)NCC2(C(N)=O)CCOCC2)cc(-c2ccc(S(=O)(=O)NC(C)(C)C)c(C(C)(C)C)c2)n1CC1CCCCC1 [17/90] |  |  |  | 1580 nM | 5.8/7.9/8.0 | 5.8/7.9/8.0
Cc1c(C(=O)NCC2(O)CCOCC2)cc(-c2cc(C(C)(C)C)c3c(c2)C2(CCO3)CC2)n1CC1CCCCC1 [1/99] |  |  |  | 398 nM | 6.4/7.1/7.2 | 6.4/7.1/7.2
Cc1c(C(=O)NC2COC2)cc(-c2ccc(C(=O)NC(C)(C)C)c(C(C)(C)C)c2)n1CC1CCCCC1 [1/30] | 3980 nM | 6.4 | 6.2 |  |  | 
Cc1c(C(=O)NCC(C)(C)O)cc(-c2cc(C(C)N3CCOCC3)cc(C(C)(C)C)c2)n1CC1CCCCC1 (stereo not drawn) [1/109] | 12600 nM | < 4.7 | < 4.7 |  |  | 
COCC1(CNC(=O)c2cc(-c3cc(C(C)(C)C)cc(C4(C)CC4)c3)n(CC3CCCCC3)c2C)COC1 [17/47] |  |  |  | 200 nM | 6.7/7.3/7.4 | 6.7/7.3/7.4
Cc1c(C(=O)NC2COC2)cc(-c2ccc(S(=O)(=O)N(C)C(C)(C)C)c(C(C)(C)C)c2)n1CC1CCCCC1 [9/5] | 316 nM | 7.2 | 7.2 |  |  | 
Cc1c(C(=O)N2CC3(COCC(=O)N3)C2)cc(-c2ccc(S(=O)(=O)NC(C)(C)C)c(C(F)(F)F)c2)n1CC1CCCCC1 [17/293] | 1260 nM | 6.6 | 6.7 |  |  | 
Cc1c(C(=O)NC2CC(C)(O)C2)cc(-c2cc(C(C)(C)C)c3c(c2)C2(CCO3)CC2)n1CC1CCCCC1 (stereo not drawn) [17/22] | 1000 nM | 6.5 | 6.6 |  |  | 
Cc1c(C(=O)NCC2COC2)cc(-c2ccc(S(=O)(=O)NC(C)(C)C)c(C(C)(C)C)c2)n1CC1CCCCC1 [1/126] | 631 nM | 7.1 | 7.0 |  |  | 
Cc1c(C(=O)NC2CCOCC2)cc(-c2ccc(S(=O)(=O)NC(C)(C)C)c(F)c2)n1CC1CCCCC1 [17/238] | 1000 nM | 6.9 | 6.7 |  |  | 
Cc1c(C(=O)NCC(C)(C)CC(=O)O)cc(-c2cc(C(C)(C)C)c3c(c2)C2(CCO3)CC2)n1CC1CCCCC1 [17/19] | 794 nM | 7.5 | 7.5 |  |  | 
